Reference: patent EP0277910A1, “1-Methyl-15-alpha-(1,2-dialkanoyloxyalkyl)androsta-1,4-diene-3-17-diones, process for their preparation and pharmaceutical compositions containing them” (SCHERING AKTIENGESELLSCHAFT, priority 1987, dated 1988)

Target: T1, Aromatase (Rattus norvegicus, UniProt P22443)
T1 construct: Infantile weibliche Ratten reagieren auf PMSG (Pregnant Mare's Serum Gonadotropin)-Behandlung mit einheitlich erhöhter Steroidsynthese; from tissue; host or cells: living infantile female rats pretreated with PMSG
T1 sequence (P22443 1-508): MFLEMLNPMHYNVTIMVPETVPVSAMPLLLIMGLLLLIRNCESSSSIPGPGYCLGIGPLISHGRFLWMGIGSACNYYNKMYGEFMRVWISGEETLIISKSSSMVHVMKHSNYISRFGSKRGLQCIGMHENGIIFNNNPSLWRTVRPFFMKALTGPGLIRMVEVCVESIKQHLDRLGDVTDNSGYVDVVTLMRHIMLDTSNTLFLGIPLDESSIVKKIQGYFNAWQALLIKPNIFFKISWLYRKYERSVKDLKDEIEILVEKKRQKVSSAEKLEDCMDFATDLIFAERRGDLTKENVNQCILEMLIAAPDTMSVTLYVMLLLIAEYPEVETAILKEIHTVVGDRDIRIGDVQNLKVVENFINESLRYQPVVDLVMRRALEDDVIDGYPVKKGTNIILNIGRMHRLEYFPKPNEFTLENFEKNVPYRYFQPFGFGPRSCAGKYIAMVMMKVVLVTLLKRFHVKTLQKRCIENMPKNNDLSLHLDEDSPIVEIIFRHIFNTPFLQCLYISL
Assay: PMSG test: effect on serum oestradiol concentration in PMSG-pretreated infantile female rats
Assay type: in vivo, Ratte
Settings: for Östradiol-Konzentration: peripheral serum, PMSG-pretreated rat, 24 h after last PMSG, mean ± SD; for Serum-östradiolkonzentration: in comparison with A and B
Procedure: Infantile weibliche Ratten reagieren auf PMSG (Pregnant Mare's Serum Gonadotropin)-Behandlung mit einheitlich erhöhter Steroidsynthese. Die Aromataseaktivität kann durch die Beeinflussung der PMSG-stimulierten Östrogenbildung gemessen werden.
Im sogenannten PMSG-Test werden 21 tage alte weibliche Ratten alle 2 Tage insgesamt 7 mal mit je 100 I.U. PMSG subkutan vorbehandelt. 1 Stunde vor und 8 Stunden nach der letzten PMSG-Applikation(d₁₂) erhalten die Tiere die Testsubstanz in 0,1 ml Benzylbenzoat/Rizinusöl (1+9) durch subkutane Injektion. Die Kontrolltiere erhalten nur das Vehikel. 24 Stunden nach der letzten PMSG-Applikation werden die Tiere getötet. Im serum wird Östradiol radioimmunologisch geprüft. Für jede Gruppe von Tieren wird der Mittelwert der Östradiolkonzentration in nMol/l mit der Standardabweichung errechnet. Die Signifikanzen der Unterschiede zur Kontrollgruppe werden durch die Varianzanalyse geprüft. Zur Ermittlung der relativen Wirkungsstärke der zu testenden Substanz im Vergleich zu der Standardsubstanz wird die Regressions- und Kovarianzanalyse durchgeführt. Ferner wird die prozentuale Hemmung gegen die PMSG-Kontrolle berechnet.

SMILES | Östradiol-Konzentration (Dosis 0,1 mg/Tier 2 x s.c.) | Östradiol-Konzentration (Dosis 0,3 mg/Tier 2 x s.c.) | Östradiol-Konzentration (Dosis 1,0 mg/Tier 2 x s.c.) | Serum-östradiolkonzentration
CC[C@H](OC(C)=O)[C@H](OC(C)=O)[C@H]1CC(=O)[C@@]2(C)CC[C@H]3[C@@H](CCC4=CC(=O)C=C(C)[C@@]43C)[C@H]12 [D, 15α-(1R,2S-Diacetoxybutyl)-1-methyl-androsta-1,4-dien-3,17-dion] | 0,54±0,11 nMol/l | 0,88±0,15 nMol/l | 0,41±0,09 nMol/l | stärker gesenkt
CC(=O)O[C@H]([C@H]1CC(=O)[C@@]2(C)CC[C@H]3[C@@H](CCC4=CC(=O)C=C(C)[C@@]43C)[C@H]12)[C@H](C)OC(C)=O [C, 15α-(1R,2S-Diacetoxypropyl)-1-methyl-androsta-1,4-dien-3,17-dion] | 1,30±0,37 nMol/l | 0,68±0,32 nMol/l | 0,24±0,10 nMol/l | stärker gesenkt
C[C@]12CCC(=O)C(O)=C1CC[C@@H]1[C@@H]2CC[C@]2(C)C(=O)CC[C@@H]12 [A, 4-Hydroxy-4-androsten-3,17-dion, reference compound] | 3,98±1,12 nMol/l | 3,84±0,84 nMol/l | 1,94±0,62 nMol/l | 
CC(=O)OCC[C@H]1CC(=O)[C@@]2(C)CC[C@H]3[C@@H](CCC4=CC(=O)C=C(C)[C@@]43C)[C@H]12 [B, 15α-(Acetoxyethyl)-1-methyl-androsta-1,4-dien-3,17-dion, reference compound] | 2,11±0,39 nMol/l | 0,62±0,13 nMol/l | 0,54±0,07 nMol/l | 
